Results: publication PMC9779817, “Identification of New Purpuroine Analogues from the Arctic Echinodermata Pteraster militaris That Inhibit FLT3-ITD^+ AML Cell Lines” (International Journal of Molecular Sciences, 2022)
≈ marks a conversion by molar mass, not a printed value.

Experiments:
Aurobasidium pollulans = experiment: Antifungal growth inhibition assay; type: cell-based; conditions: positive control
Protocol: (§4) The yeast strains Candida albicans (ATCC 10231) and Rhodotrula sp. and the Aurobasidium pollulans mold, were cultivated on potato dextrose agar with 2% glucose at room temperature. Fungal spores were dissolved in potato dextrose broth (Difco Laboratories, USA) and the cell concentration was determined and adjusted after counting in a Bürker chamber. […] The assay plates were incubated in a moist dark chamber at 37 °C. […] Growth inhibition was determined microscopically after 42 h incubation.

Rhodotrula sp. = experiment: Antifungal growth inhibition assay; type: cell-based; conditions: positive control
Protocol: as §4

MOLM-13 = experiment: Viability screening, colorimetric MTS assay; type: cell-based, human; parameters: key: Active: active compound was defined as ≤50% survival at one of the concentrations; Inactive; conditions: MOLM-13, acute myeloid leukemia; screened at 10 and 50 µM; 72 h
Protocol: (§1) All cell lines were purchased from ATCC (Manassa, VA, USA) except MOLM-13 that was purchased from Leibniz Institute DSMZ (Braunschweig, Germany). Viability screening of compounds 1–3 at 10 and 50µM was performed by a colorimetric MTS assay. The cells were seeded into 96-well microtiter plates (Nunclon^TM Delta Surface, Thermo Scientific, Roskilde, Denmark) in RPMI-1640 supplemented with 10% FBS and 10µg/mL Gentamycin (assay media). The adherent cell lines A2058, HaCat and HT29 were seeded in a density of 2000 cells/well, MRC5 were seeded in a density of 4000 cells/well and SK-BR-3 and MDA-MB-468 were seeded in a density of 5000 cells/well. After incubation for 24 h in 37 °C and 5% CO2 the media was discarded and replaced by samples diluted in assay media, negative control (100% cell survival, 100% assay media) and positive control (0% cell survival, 90% assay media supplemented with 10% DMSO). The suspension cell lines MV-4-11 and MOLT-4 were directly seeded in a density of 10,000 cells/well and MOLM-13 and THP-1 were seeded in a density of 20,000 cells/well in assay media supplemented with sample. All samples were added in triplicates. Cells and samples were incubated for a total of 72 h (HepG2 cells were incubated for 24 h) at 37 °C and 5% CO2. Thereafter, 10% CellTiter 96®AQueous One Solution Reagent (G3581, Promega) containing tetrazolium compound [3-(4,5-dimethylthiazol-2-yl)-5-(3-carboxymethoxyphenyl)-2-(4-sulfophenyl)-2H-tetrazolium] and phenazine ethosulfate were added. After 1 h incubation the absorbances was measured at 485 nm with a DTX 880 and viability was calculated.

MV-4-11 = experiment: Viability screening and IC50 determination, MTS assay; type: cell-based, human; parameters: key to Activity at ≤50 µM: Active: active compound was defined as ≤50% survival at one of the concentrations; Inactive; conditions: for Activity at ≤50 µM: MV-4-11, acute myeloid leukemia, screened at 10 and 50 µM, 72 h
Protocol: as §1

MV-4-11 cells [1] = experiment: Cell cycle analysis (PI staining, flow cytometry); type: cell-based, human; conditions: 24 h, compared to control
Protocol: MV-4-11 cells were seeded into 24-well plates (Nunclon^TM Delta Surface, Thermo Scientific) in a density of 1 × 10^6 cells/mL supplemented with 26 µM, 52 µM or 104 µM of 1. The cells were incubated for 24 h and thereafter fixed in ice cold 70% EtOH. After washing the cells were stained with FxCycle™ PI/RNase Staining Solution (Invitrogen, MA, USA) according to manufacturer’s instructions. The cells were analysed by a CytoFLEX Flow cytometer (Beckman Coulter, CA, USA) and cell cycle phase determined in CytExpert software (Beckman Coulter).

FLT3-ITD mutant = FLT3-ITD mutant (Homo sapiens, UniProt P36888); type: binding; conditions: concentrations tested up to 10 μM
Protocol: (§2) A FRET signal is generated between an Europium-labelled tag, on the FLT3 kinase, and a fluorescent tracer with high binding affinity for the FLT3 active site.
(§3) Anti-GST-Eu-tagged monoclonal antibodies (anti-GST AB) were purchase from Cisbio (PerkinElmer Norge AS, catalogue number 61GSTKLA) and reconstituted in water at a final concentration of 333 nM. White, non-binding, round bottom 384 well microplates (reference number 4513) were purchased from Corning (Corning Inc, Kennebunk, ME, USA). The compounds were serially diluted into DMSO to 12 different concentrations. Each of these compound-containing DMSO solutions was further diluted 33 times in assay buffer A (50 mM HEPES pH 7.5, 10 mM MgCl2, 1 mM ethylene glycol-bis(β-aminoethyl ether)-N,N,N′,N′-tetraacetic acid (EGTA) and 0.01% BRIJ-35) and 5 μL of these solutions were dispensed in triplicates in 384 well plate. […] Fluorescence measurements were made using a EnVision 2104 Multilabel reader, (PerkinElmer, US), excitation wavelength was set to 340 nm and emission was read at both 615 nm (8.5 nm bandwidth) and 665 nm (7.5 nm bandwidth) over […] between excitation and emission measurements.

A2058 = experiment: Viability screening, human melanoma cell line; type: cell-based; parameters: key: Active: active compound was defined as ≤50% survival at one of the concentrations; Inactive; conditions: screened at 10 and 50 µM, 72 h
Protocol: The flash fractions of P. militaris were assayed for activity against the human melanoma cancer cell line A2058 at 50 µg/mL. […] The flash fractions were also assayed against the human pathogenic bacterial strains Staphylococcus aureus, Enterococcus faecalis, Escherichia coli, Pseudomonas aeruginosa and Streptococcus agalactiae (Gr. B).
as §1

MOLT-4 = experiment: Viability screening, colorimetric MTS assay; type: cell-based; parameters: key: Active: active compound was defined as ≤50% survival at one of the concentrations; Inactive; conditions: MOLT-4, acute lymphoblastic leukemia; screened at 10 and 50 µM; 72 h
Protocol: as §1

THP-1 = experiment: Viability screening, colorimetric MTS assay; type: cell-based; parameters: key: Active: active compound was defined as ≤50% survival at one of the concentrations; Inactive; conditions: THP-1, acute monocytic leukemia; screened at 10 and 50 µM; 72 h
Protocol: as §1

HaCat = experiment: Viability screening, colorimetric MTS assay; type: cell-based; parameters: key: Active: active compound was defined as ≤50% survival at one of the concentrations; Inactive; conditions: keratinocytes (non-cancerous), screened at 10 and 50 µM, 72 h
Protocol: as §1

HepG2 = experiment: Viability screening, colorimetric MTS assay; type: cell-based; parameters: key: Active: active compound was defined as ≤50% survival at one of the concentrations; Inactive; conditions: HepG2, liver hepatocellular carcinoma; screened at 10 and 50 µM; 24 h
Protocol: as §1

SK-BR-3 = experiment: Viability screening, colorimetric MTS assay; type: cell-based; parameters: key: Active: active compound was defined as ≤50% survival at one of the concentrations; Inactive; conditions: SK-BR-3, breast cancer; screened at 10 and 50 µM; 72 h
Protocol: as §1

HT29 = experiment: Viability screening, colorimetric MTS assay; type: cell-based; parameters: key: Active: active compound was defined as ≤50% survival at one of the concentrations; Inactive; conditions: HT29, colon cancer; screened at 10 and 50 µM; 72 h
Protocol: as §1

MDA-MB-468 = experiment: Viability screening, colorimetric MTS assay; type: cell-based; parameters: key: Active: active compound was defined as ≤50% survival at one of the concentrations; Inactive; conditions: MDA-MB-468, breast cancer; screened at 10 and 50 µM; 72 h
Protocol: as §1

MRC5 = experiment: Viability screening, colorimetric MTS assay; type: cell-based; parameters: key: Active: active compound was defined as ≤50% survival at one of the concentrations; Inactive; conditions: MRC5, lung fibroblasts (non-cancerous); screened at 10 and 50 µM; 72 h
Protocol: as §1

FLT3 WT = molecular target: T1, FLT3 WT (Homo sapiens, UniProt P36888); experiment: Kinase binding assay (FRET tracer competition); conditions: concentrations tested up to 10 μM
T1 construct: purchased ThermoFisher Scientific PV3182
T1 sequence (P36888 564-993 limits assumed): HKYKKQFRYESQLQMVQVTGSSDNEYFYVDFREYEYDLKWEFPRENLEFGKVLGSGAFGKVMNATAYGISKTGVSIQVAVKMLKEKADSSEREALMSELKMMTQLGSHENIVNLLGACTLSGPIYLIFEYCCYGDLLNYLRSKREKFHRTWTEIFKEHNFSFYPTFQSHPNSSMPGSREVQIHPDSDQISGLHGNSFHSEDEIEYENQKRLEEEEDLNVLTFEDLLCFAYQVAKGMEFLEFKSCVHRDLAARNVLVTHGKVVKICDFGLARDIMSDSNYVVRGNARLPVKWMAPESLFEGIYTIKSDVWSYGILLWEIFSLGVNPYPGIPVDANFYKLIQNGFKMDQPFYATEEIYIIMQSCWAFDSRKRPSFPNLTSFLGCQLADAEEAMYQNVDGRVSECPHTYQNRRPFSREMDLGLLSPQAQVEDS
Protocol: as §2, §3

MV-4-11 cells [2] = experiment: Apoptosis assay (annexin V/PI staining, flow cytometry); type: cell-based, human; conditions: 26 µM (1 × IC50); 24 h
Protocol: To further investigate the cell death pathway activated by 1, an apoptosis assay was performed and the ability of 1 to induce apoptosis and/or necrosis in MV-4-11 cell line was evaluated by annexin V/PI staining (Figure 5). The cells were divided into 3 different populations: annexin V−/PI− (healthy cells), annexin V+/PI− (apoptotic cells) and annexin V+/PI+ (late apoptotic/necrotic cells). […] However, after 24 h and 48 h of incubation at the highest concentration of compound (104 µM), no increase in apoptotic cells were seen when compared to cells incubated with 52 µM.
MV-4-11 cells were seeded into 24-well plates (Nunclon^TM Delta Surface, Thermo Scientific) at a density of 1 × 10^6 cells/mL supplemented with 26 µM, 52 µM or 104 µM of 1 and incubated for 24 or 48 h at 37 °C an 5% CO2. Apoptotic and necrotic cells were labelled according to manufacturer’s instructions (Alexa Fluor^TM 488 Annexin V/Dead Cell Apoptosis Kit, Invitrogen) and analysed by a CytoFLEX Flow cytometer and CytExpert software (Beckman Coulter).

| Structure (SMILES) | Activity at ≤50 µM (MOLM-13) | Activity at ≤50 µM (MV-4-11) | Activity at ≤50 µM (A2058) | Activity at ≤50 µM (MOLT-4) | Activity at ≤50 µM (THP-1) | Activity at ≤50 µM (HaCat) | Activity at ≤50 µM (HepG2) | Activity at ≤50 µM (SK-BR-3) | Activity at ≤50 µM (HT29) | Activity at ≤50 µM (MDA-MB-468) | Activity at ≤50 µM (MRC5) | also measured |
| --- | --- | --- | --- | --- | --- | --- | --- | --- | --- | --- | --- | --- |
| C[C@@H]1[C@H](O)[C@@H](C)/C=C/C=C/C=C/C=C/C=C/C=C/C=C/[C@H](O[C@@H]2O[C@H](C)[C@@H](O)[C@H](N)[C@@H]2O)C[C@@H]2O[C@](O)(C[C@@H](O)C[C@@H](O)[C@H](O)CC[C@@H](O)C[C@@H](O)CC(=O)O[C@H]1C)C[C@H](O)[C@H]2C(=O)O [amphotericin-B] | – | – | – | – | – | – | – | – | – | – | – | MIC (Aurobasidium pollulans): 8.7 µM (≈ 8.04 µg/mL); MIC (Rhodotrula sp.): 8.7 µM (≈ 8.04 µg/mL) |
| COC(=O)[C@@H](CCOc1c(Br)cc(Br)cc1Br)[N+](C)(C)C [compound 1, purpuroine K] | Active | Active | I | I | I | I | I | I | I | I | I ^2 | IC50 (MV-4-11; Homo sapiens, MV4-11, MV-4-11 cell line, read-out: IC50 against MV-4-11): 26 ± 1.2 µM; decrease of cells entering G2/M-phase (MV-4-11 cells [1]; 52 µM): 26%; decrease of cells entering the S-phase (MV-4-11 cells [1]; 52 µM): 23%; increase in the number of cells arrested in G0/G1 phase (MV-4-11 cells [1]; 52 µM): 11%; decrease of cells entering G2/M-phase (MV-4-11 cells [1]; 104 µM): 55%; decrease of cells entering the S-phase (MV-4-11 cells [1]; 104 µM): 38%; increase in the number of cells arrested in G0/G1 phase (MV-4-11 cells [1]; 104 µM): 19%; binding to FLT-ITD mutant active site (FLT3-ITD mutant): does not bind; binding to FLT3 WT active site (FLT3 WT): does not bind; increase in percentage of apoptotic cells compared to control (MV-4-11 cells [2]): 94% |
| COC(=O)[C@@H](CCOc1c(Cl)cc(Br)cc1Br)[N+](C)(C)C [compound 2, purpuroine L] | I | I | I | I | I | I | I | I | I | I | I | – |
| COC(=O)[C@@H](CCOc1c(Cl)cc(Br)cc1Cl)[N+](C)(C)C [compound 3, purpuroine M] | I | I | I | I | I | I | I | I | I | I | I | – |
